Experimental data: patent US7186879B2, “Screening systems and methods for identifying modulators of xenobiotic metabolism” (Baylor College of Medicine, priority 2001, dated 2007)

What was measured:
[1] = system: wild-type and CAR knockout mice; assay: APAP toxicity after pretreatment with inducers (serum ALT, histology); assay type: in vivo, mouse; conditions: APAP 250 mg/kg; for hepatotoxicity, inducer plus APAP: CAR null mice; for liver histology after pretreatment and APAP: wild-type animals; for ALT levels and hepatic necrosis, inducer plus APAP: wild-type, 24 hours
Experimental: (§1) CAR (+/+) or CAR (−/−) animals pretreated with phenobarbital (PB), TCPOBOP (TC), or vehicle alone were administered a 250 mg/kg dose of APAP by intraperitoneal injection (n=5–7 per treatment group) (FIG. 11A). Serum was collected and alanine aminotransferase (ALT) levels were measured after 24 hours. Liver sections from different treatments were examined by histological staining (FIG. 11B). Liver samples from all treated animals were analyzed but only representative histology is presented. […] CAR (+/+) or CAR (−/−) animals were pretreated with PB, TCPOBOP (TC), or vehicle alone for three days (FIG. 11C). […] Liver samples treated as indicated were collected two hours after APAP and GSH levels were measured (n=5–7) (FIG. 11D).
The effect of PB and the potent CAR agonist TCPOBOP on APAP toxicity was examined in wild-type and CAR knockout mice. Both strains of mice were treated with inducers or the vehicle control, followed by 250 mg/kg APAP. For these studies, mice were kept in a pathogen-free animal facility under standard 12 hour light/12 hour dark cycle and fed standard rodent chow and water ad libitum. At least five mice between 8 and 10 weeks old were used in each treatment group. For 3-day PB (100 mg/kg) treatment, mice were injected intraperitoneally three times, one injection per day. TCPOBOP (3 mg/kg) and/or APAP were injected intraperitoneally. Phenobarbital and TCPOBOP were suspended or dissolved in corn oil, and APAP was dissolved in basic PBS (pH=11). PB and APAP were purchased from Sigma (St Louis, Mo.); TCPOBOP was a gift from Dr. Stephen Safe.
For histologic examination of the treated mice, the left lobe of the livers was removed and immediately fixed in 4% formaldehyde-PBS solution, embedded in paraffin, sectioned at 5 μm, and stained with hematoxylin and eosin. Samples were examined under a light microscope. For RNA studies, total RNA was extracted using TRIzol Reagent (Invitrogen Life Technologies, Carlsbad, Calif.) according to the manufacture's instruction. Equivalent amount of RNA from 3–5 mice were pooled and 10 μg of each sample was subjected to northern blot analysis. […] Preparation of probes for CYP2B10 and CYP3A11 were described as previously (Wei et al., Nature 407:920–923, 2000 and Zelko et al., Mol Cell Biol 21:2838–2846, 2001). PCR primers used were: CYP1A2: 5′-[…]-3′ (SEQ ID NO: 19) and 5′-[…]-3′ (SEQ ID NO: 20), CYP2E1: 5′-[…]-3′ (SEQ ID NO: 21) and 5′-[…]-3′ (SEQ ID NO: 22), GSTPi: 5′-[…]-3′ (SEQ ID NO: 23) and 5′-[…]-3′ (SEQ ID NO: 24). Hepatic non-protein thiol was measured as an indication of hepatic GSH content. Mice were sacrificed two hours after intraperitoneal injection with APAP. Livers were removed and immediately homogenized in four volumes of 5% trichloroacetic acid and then centrifuged at 1,600×g for 15 minutes. Supernatant (0.5 ml) was mixed with 1.5 ml 0.1 mM Ellman's reagent [5,5′-dithio-bis(2-nitrobenzoic acid)] (Sigma, St Louis, Mo.) and allowed to stand at room temperature for 15 minutes. Absorbance was read at 412 nm using GSH solutions as quantitative standards.

[2] = system: CYP2E1, CYP1A2, CYP3A11, GSTPi; assay: Northern blot of APAP metabolizing genes in liver of wild-type and CAR null mice; conditions: for suppression of CYP2E1 and induction of CYP1A2, CYP3A11, GSTPi: CAR null mice; for CYP1A2 mRNA / CYP2E1 mRNA levels / CYP3A11 mRNA / GSTPi mRNA: wild-type animals, three days pretreatment
Experimental: as §1, with “Serum was collected and alanine aminotransferase (ALT) levels were measured after 24 hours.” left out
CAR (+/+) and CAR (−/−) animals were given 250 mg/kg, 500 mg/kg, or 800 mg/kg doses of APAP, respectively (FIG. 12A). […] Total liver RNA was prepared from 500 mg/kg APAP treated CAR (+/+) and CAR (−/−) livers at 0 and 2 hours as indicated. […] The same blot was stripped and re-probed with β-actin as loading control.
For histologic examination of the treated mice, the left lobe of the livers was removed and immediately fixed in 4% formaldehyde-PBS solution, embedded in paraffin, sectioned at 5 μm, and stained with hematoxylin and eosin. Samples were examined under a light microscope. For RNA studies, total RNA was extracted using TRIzol Reagent (Invitrogen Life Technologies, Carlsbad, Calif.) according to the manufacture's instruction. Equivalent amount of RNA from 3–5 mice were pooled and 10 μg of each sample was subjected to northern blot analysis. […] Hepatic non-protein thiol was measured as an indication of hepatic GSH content. Mice were sacrificed two hours after intraperitoneal injection with APAP. […] Supernatant (0.5 ml) was mixed with 1.5 ml 0.1 mM Ellman's reagent [5,5′-dithio-bis(2-nitrobenzoic acid)] […] Absorbance was read at 412 nm using GSH solutions as quantitative standards.

murine CAR [3] = biological target: T1, murine CAR (Mus musculus, UniProt O35627); conditions: mice expressing only murine CAR (heterozygous, no transgene), 24 hours
T1 sequence (O35627 1-358): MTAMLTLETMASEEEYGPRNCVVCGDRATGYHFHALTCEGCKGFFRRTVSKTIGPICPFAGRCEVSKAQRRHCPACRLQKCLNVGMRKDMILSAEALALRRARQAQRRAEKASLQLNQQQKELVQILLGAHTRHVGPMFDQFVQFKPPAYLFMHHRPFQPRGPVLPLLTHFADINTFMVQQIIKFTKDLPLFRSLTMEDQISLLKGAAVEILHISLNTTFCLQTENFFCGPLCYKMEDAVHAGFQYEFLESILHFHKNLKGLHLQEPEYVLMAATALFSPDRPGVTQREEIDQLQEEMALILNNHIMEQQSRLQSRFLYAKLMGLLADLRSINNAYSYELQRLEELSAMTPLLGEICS
Experimental: (§2) Total RNA was prepared from the livers of the individual mice, and CYP2B10 mRNA expression was assessed by Northern blotting.
(§3) Mice heterozygous for the murine CAR gene mutation and lacking the human CAR transgene express only murine CAR. […] Mice homozygous for the murine CAR gene mutation and carrying the human CAR transgene express only human CAR in the liver.

murine CAR [4] = conditions: no functional CAR (homozygous mutation, no transgene), 24 hours
Experimental: as §2, §3

CYP2B10 = assay: In situ hybridization of CYP2B10 in small intestine; conditions: for CYP2B10 expression in the small intestine: 3 days treatment; for number of grains per cell, with or without treatment: CAR −/− animals; for number of grains per cell, with or without treatment / number of grains per cell, treated versus untreated: small intestine

Row | SMILES | hepatotoxicity, inducer plus APAP [1] | liver histology after pretreatment and APAP [1] | ALT levels and hepatic necrosis, inducer plus APAP [1] | suppression of CYP2E1 and induction of CYP1A2, CYP3A11, GSTPi [2] | CYP1A2 mRNA [2] | CYP2E1 mRNA levels [2] | CYP3A11 mRNA [2] | GSTPi mRNA [2] | induction of CYP2B10 mRNA (murine CAR [3]) | induction of CYP2B10 mRNA (murine CAR [4]) | CYP2B10 expression in the small intestine (CYP2B10; CAR knockout mice) | number of grains per cell, with or without treatment (CYP2B10) | CYP2B10 expression in the small intestine (CYP2B10; wild-type mice) | number of grains per cell, treated versus untreated (CYP2B10; wild-type mice)
1 | Clc1cnc(Oc2ccc(Oc3ncc(Cl)cc3Cl)cc2)c(Cl)c1 [TCPOBOP, 1,4-bis[2-(3,5-dichloropyridyloxy)]benzene] | no such hepatotoxicity | extensive hepatic centrilobular necrosis | strongly elevated ALT levels and hepatic necrosis | Neither the suppression of CYP2E1 nor the induction of the other enzymes was observed | induced | modestly suppressed | induced | induced | induction of CYP2B10 mRNA | no response | not detected | not significantly different | induced CYP2B10 expression | approximately two-fold higher
2 | CCC1(c2ccccc2)C(=O)NC(=O)NC1=O [PB, phenobarbital] | no such hepatotoxicity | extensive hepatic centrilobular necrosis | strongly elevated ALT levels and hepatic necrosis | Neither the suppression of CYP2E1 nor the induction of the other enzymes was observed | induced | modestly suppressed | induced | induced | induction of CYP2B10 mRNA | no response | not detected | not significantly different | induced CYP2B10 expression | approximately two-fold higher
